EP0337503B1, “Fumigation methods and compositions” (Entek Corporation, priority 1983, dated 1984)

Tests used:
[1] = Effect of pH on production of CS2 from thiocarbonates in citrate-phosphate buffers, gas chromatography of air; type: physicochemical
Description: Pure carbon disulfide is also injected, for comparison. A syringe is used to periodically sample air in the bottle, and the air is analyzed by gas chromatography.

[2] = Decomposition in sandy loam soil at different moisture, CS2 in air space by gas chromatography; type: physicochemical; conditions: hours to maximum CS2 concentration in the air space
Description: A sandy loam soil is placed in 1-liter glass bottles, fitted with stoppers having fluorocarbon liners and silicone rubber septa, to give a soil depth of about 4 cm. […] Thiocarbonate solution or carbon disulfide is injected near the bottom of the soil layer, the bottles are promptly sealed, and the air space in the bottles is sampled at intervals with a syringe, for gas chromatographic analysis of CS2. Results are summarized below, wherein degradation time is the number of hours required to achieve the maximum CS2 concentration in the air space.

[3] = system: root-knot nematode larvae (Meloidogyne incognita); assay: Greenhouse nematocide experiment with tomato plants, soil drench, root gall count; type: in vivo; conditions: 30 days; for Gall Counts, replicate 3: control 1; for Gall Counts, Mean: control 4.0; for Gall Counts, replicate 2: control 7; for Gall Counts, replicate 1: control 4
Description: In the experiment, thirty containers are used, each containing about 500 grams of sterilized sandy loam soil. Each container contains one tomato plant. Each container is injected with four 5-milliliter portions of extract from nematode-infested pepper roots, one inch below the soil surface, producing an initial population of 2000 root-knot nematode larvae (Meloidogyne incognita) per container.
Ten treatments are replicated three times, each treatment consisting of drenching the soil with a solution containing the fumigant to provide the dosage of CS2 given in the following table. The solutions are diluted with sufficient water to saturate the soil. The treatments include calcium tetrathiocarbonate, stabilized ammonium tetrathiocarbonate, and carbon disulfide at three levels, plus an untreated control. After drenching, each container is allowed to stand at ambient conditions. The plants are harvested after 30 days of growth, and soil is removed from the roots by a gentle washing with water. By use of a magnifying glass, the number of root galls is counted on each plant.
Results are summarized below, wherein the "Application" represents milligrams of treatment per kilogram of soil, calculated as the thiocarbonate salt and the equivalent carbon disulfide. Gall counts are mean values from the three replicates.

Sclerotium rolfsii = assay: Fungicidal test, radial growth of mycelia colonies; type: cell-based
Description: (§1) Thiocarbonate solutions are used in a test of their fungicidal properties. Cultures of four plant pathogenic fungi are grown upon potato dextrose agar at room temperature, in diffuse natural lighting. After one week, square blocks having 2 millimeter sides are cut from the edges of actively growing mycelia spots on the agar.
(§2) The blocks are immersed in sterile deionized water, as a control, or in dilutions of thiocarbonate solutions using the sterile water, in a closed container. Subsequently, the blocks are removed and placed upon agar in clean plates, and mycelia are allowed to grow for one week.
(§3) Radial growth of mycelia colonies is measured for each of the six to eight replicate plates used for a particular fungus, and average colony radius is calculated. Percent control is defined by the following equation: Percent control =[1-((Average radius of treated plates)/(Average radius of control plates))]x100 [formula]
(§4) Concentrations given for solutions used to treat the agar blocks are expressed in grams of thiocarbonate solution per liter of diluted solution.

Fusarium oxysporum = assay: Fungicidal test, radial growth of mycelia colonies; type: cell-based; conditions: listed as CaCS4 (2.8%CS2)
Description: as §1, §2, §3, §4

Verticillium dahliae = assay: Fungicidal test, radial growth of mycelia colonies; type: cell-based
Description: as §1, §2, §3, §4

Phytophthora cinnamomi = assay: Fungicidal test, radial growth of mycelia colonies; type: cell-based
Description: as §1, §2, §3, §4

nematode larvae = assay: In-vitro nematocidal test: larvae treated in aqueous suspension, injected into root zone of tomato plants, gall count; type: in vivo, Meloidogyne incognita; conditions: larvae treated 1 hour; for Gall Count, replicate 2: control 88; for Gall Count, Mean: control 89; for Gall Count, replicate 1: control 90
Description: The procedure of Example 2 is repeated except that potassium tetrathiocarbonate is substituted for stabilized ammonium tetrathiocarbonate and an in-vitro nematocidal test is used. In the in-vitro test, the nematode larvae are treated in aqueous suspension for 1 hour at the concentrations of fumigant given in the following table, washed twice with water, and injected into the active root zone of the tomato plants. After thirty days the roots are harvested, examined for galling, giving the results summarized below.

[4] = Storage stability: loss of ability of aqueous solutions to generate carbon disulfide upon contact with strong acid; type: physicochemical; conditions: aqueous solutions of tetrathiocarbonate salts, about 14 to about 16 percent by weight carbon disulfide equivalent, air-tight glass containers, 49° C.; listed as Ca^++
Description: Various tetrathiocarbonate salts are evaluated for storage stability by measuring the loss of the ability of aqueous solutions thereof to generate carbon disulfide upon contact with strong acid. Aqueous solutions of the salts listed in the following table, having an equivalent of from about 14 to about 16 percent by weight carbon disulfide, are stored in air-tight glass containers at a temperature of 49° C.

[5] = highest application: 638/89 ppm ((NH4)2CS4·(NH4)2S), 730/91 (CaCS4), 97 ppm (CS2)
[6] = lowest application: 213/30 ppm ((NH4)2CS4·(NH4)2S), 245/31 (CaCS4), 32 ppm (CS2)
[7] = middle application: 425/60 ppm ((NH4)2CS4·(NH4)2S), 490/61 (CaCS4), 65 ppm (CS2)
[8] = 1 g/l, listed as CaCS4 (2.8%CS2)
[9] = 10 g/l, listed as CaCS4 (2.8%CS2)
[10] = 50 ppm salt (6.3 ppm CS2 equiv. CaCS4; 6.5 ppm K2CS4)
[11] = 100 ppm salt (12.5 ppm CS2 equiv. CaCS4; 13 ppm K2CS4)
[12] = 150 ppm salt (18.8 ppm CS2 equiv. CaCS4; 19.5 ppm K2CS4)

S=C(S)SS [CaCS4, calcium tetrathiocarbonate]
Half-life (minutes) for production of carbon disulfide ([1]; pH 5.2, 125 milligrams per liter of thiocarbonate ion): 1 min
Half-life (minutes) for production of carbon disulfide ([1]; pH 6.0, 125 milligrams per liter of thiocarbonate ion): 1.8 min
Half-life (minutes) for production of carbon disulfide ([1]; pH 7.0, 125 milligrams per liter of thiocarbonate ion): 2.7 min
Half-life (minutes) for production of carbon disulfide ([1]; pH 8.0, 125 milligrams per liter of thiocarbonate ion, CaCS4 values above pH 7 called unreliable): 8.0 min
Half-life (minutes) for production of carbon disulfide ([1]; pH 9.0, 125 milligrams per liter of thiocarbonate ion, CaCS4 values above pH 7 called unreliable): 11.3 min
Degradation Time ([2]; Soil Moisture 0 % of Saturation): 4 h
Degradation Time ([2]; Soil Moisture 50 % of Saturation): 5 h
Degradation Time ([2]; Soil Moisture 100 % of Saturation): 48 h
Gall Counts, replicate 3 [3, 5]: 9
Gall Counts, Mean [3, 5]: 7.0
Gall Counts, replicate 2 [3, 5]: 9
Gall Counts, replicate 1 ([3]; highest application: 638 ppm salt/89 ppm Eq. CS2 ((NH4)2CS4·(NH4)2S), 730/91 (CaCS4), 97 ppm (CS2)): 3
Gall Counts, replicate 3 [3, 6]: 23
Gall Counts, Mean [3, 6]: 15.7
Gall Counts, replicate 2 [3, 6]: 8
Gall Counts, replicate 1 ([3]; lowest application: 213 ppm salt/30 ppm Eq. CS2 ((NH4)2CS4·(NH4)2S), 245/31 (CaCS4), 32 ppm (CS2)): 16
Gall Counts, replicate 3 [3, 7]: 7
Gall Counts, Mean [3, 7]: 7.3
Gall Counts, replicate 2 [3, 7]: 4
Gall Counts, replicate 1 ([3]; middle application: 425 ppm salt/60 ppm Eq. CS2 ((NH4)2CS4·(NH4)2S), 490/61 (CaCS4), 65 ppm (CS2)): 11
Percent Control Sclerotium rolfsii (Sclerotium rolfsii; [8]): 46%
Percent Control Sclerotium rolfsii (Sclerotium rolfsii; [9]): 62%
Percent Control Sclerotium rolfsii (Sclerotium rolfsii; 100 g/l): 100%
Percent Control Fusarium oxysporum (Fusarium oxysporum; 1 g/l): 3%
Percent Control Fusarium oxysporum (Fusarium oxysporum; 10 g/l): 18%
Percent Control Fusarium oxysporum (Fusarium oxysporum; 100 g/l thiocarbonate solution per liter of diluted solution): 100%
Percent Control Verticillium dahliae (Verticillium dahliae; [8]): 13%
Percent Control Verticillium dahliae (Verticillium dahliae; [9]): 22%
Percent Control Verticillium dahliae (Verticillium dahliae; 100 g/l): 100%
Percent Control Phytophthora cinnamomi (Phytophthora cinnamomi; [8]): 56%
Percent Control Phytophthora cinnamomi (Phytophthora cinnamomi; [9]): 56%
Percent Control Phytophthora cinnamomi (Phytophthora cinnamomi; 100 g/l): 100%
Gall Count, replicate 2 (nematode larvae; [10]): 149
Gall Count, Mean (nematode larvae; [10]): 167
Gall Count, replicate 1 (nematode larvae; [10]): 185
Gall Count, replicate 2 (nematode larvae; [11]): 184
Gall Count, Mean (nematode larvae; [11]): 158
Gall Count, replicate 1 (nematode larvae; [11]): 132
Gall Count, replicate 2 (nematode larvae; [12]): 66
Gall Count, Mean (nematode larvae; [12]): 49
Gall Count, replicate 1 (nematode larvae; [12]): 32
Half-life (months) [4]: 5.0 months
